From PMC11288129, “Diversely evolved xibalbin variants from remipede venom inhibit potassium channels and activate PKA-II and Erk1/2 signaling” (BMC Biology, 2024)
Marks after values point to notes of the source that are not given here. Positions of bridges follow the written chain, without caps; N, C: chain ends. No end group written: not given here.

Tests used:
hNav1.5 [1] = experiment: TEVC current-voltage relationship (Vhalf), Nav1.5; assay type: cell-based, human; parameters: Vhalf, toxin inactivation, Nav1.5 / Vhalf, toxin activation, Nav1.5: unit not given here; conditions: for Vhalf, toxin activation, Nav1.5 / Vhalf, toxin inactivation, Nav1.5: 1 µM
From the text: (§1) For the expression of Kv channels rat Kv1.1 (GenBank accession number: NM_173095 [88, 89]), rKv1.2 (NM_012970 [90, 91]), human Kv1.3 (NM_002232 [92, 93]), rKv1.4 (NM_012971 [94, 95]), rKv1.6 (NM_023954 [96, 97]), hKv2.1 (NM_004975 [98, 99]), hKv3.1 (NM_004976 [100, 101]), rKv4.2 (NM_031739 [102, 103]), hKv10.1 (NM_172362 [104, 105]), hERG1 [Kv11.1, (NM_000238 [106, 107])], and Shaker IR [from Drosophila melanogaster, (NM_167595 [108, 109])], Nav channels [rNav1.2 (NM_012647 [42, 110]), rNav1.4 (NM_013178 [111, 112]), hNav1.5 (NM_198056 [113, 114]), mNav1.6 (NM_001077499 [115, 116]), BgNav [from Blattella germanica, (DQ466887 [117, 118])] and the auxiliary subunits rβ1 (NM_001271045 [119, 120]), hβ1 (NM_001037 [121, 122]), and TipE [from D. melanogaster, (NM_079196 [109, 123])], and Cav channels hCav3.1 [124, 125], hCav3.2 [126, 127], and hCav3.3 [128, 129] in Xenopus oocytes, the linearized plasmids were transcribed using the T7 or SP6 mMESSAGEmMACHINE transcription kit (Ambion, Austin, TX, USA). Mature female animals were purchased from Nasco (Fort Atkinson, USA) and were housed in the Aquatic Facility (KU Leuven) in compliance with the regulations of the European Union (EU) concerning the welfare of laboratory animals as declared in Directive 2010/63/EU. The use of X. laevis oocytes was approved by the Animal Ethics Committee of the KU Leuven with the license number P186/2019. Stage V–VI oocytes were collected from anesthetized female X. laevis frog as previously described, with the frogs anesthetized by placement in 0.1% tricaine solution (amino benzoic acid ethyl ester; Merck, USA). Oocyte microinjection was performed using a microinjector (Drummond Scientifc®, USA), with a programmed cRNA injection volume of 4—50 nL, depending on the channel subtype. The oocytes were incubated in ND96 solution (96 mM NaCl, 2 mM KCl, 1.8 mM CaCl2, 2 mM MgCl2, and 5 mM HEPES, pH 7.4), supplemented with 50 mg/l gentamicin sulfate.
(§2) Electrophysiological measurements were performed at room temperature (18–22 °C) using the two-electrode voltage clamp (TEVC) technique. Data were obtained using a GeneClamp 500 amplifier (Axon Instruments, USA), and Clampex9 software (Axon Instruments), responsible for data acquisition and storage. Glass micropipettes were produced using glass capillaries (borosilicate WPI 1B120-6) and drawn in a WPI (World Precision Instruments, USA) manual stretcher. The bath and perfusion solutions were either the previously described ND96 (Nav and Kv channels) or calcium-free ND96 supplemented with 10 mM BaCl2 (Cav channels).
(§3) Whole-cell currents of oocytes were recorded 1 to 3 days after injection. Current and voltage electrodes were filled with 3 M KCl and their resistance was adjusted from 0.7 to 2.0 MΩ. Currents were sampled at 20 kHz (Nav channels) and 10 kHz (Kv and Cav channels) and filtered using a four-pole Bessel low-pass Bessel filter, at 1 kHz for sodium, and […] for potassium and calcium, except for the hERG ion channel, in which the currents were filtered at 1 kHz. Leak subtraction was performed using a -P/4 protocol. Kv1.x currents were evoked by 500 ms depolarizations to 0 mV followed by a 500-ms pulse to − 50 mV, from a holding potential of − 90 mV. Kv2.1, Kv3.1, and Kv4.2 currents were elicited by 500 ms pulses to + 20 mV from a holding potential of − 90 mV. Current traces of Kv10.1 were elicited by 2 s depolarization to 0 mV, from a holding potential of − 90 mV. Current traces of hERG1 channel were elicited by applying a + 40 mV prepulse for 2 s followed by a step of − 120 mV for 2 s. Sodium current traces were evoked by a 100 ms depolarization to 0 mV, from a holding potential of − 90 mV. The current–voltage (IV) relationships were determined by 100-ms step depolarizations between − 90 and + 40 mV, using 5 mV increments. […]

hNav1.5 [2] = experiment: TEVC inhibition, Nav1.5; assay type: cell-based, human; conditions: 1 µM, Xenopus oocytes, ND96, 18–22 °C, mean ± SEM, n ≥ 3
From the text: For the expression of Kv channels rat Kv1.1 (GenBank accession number: NM_173095 [88, 89]), rKv1.2 (NM_012970 [90, 91]), human Kv1.3 (NM_002232 [92, 93]), rKv1.4 (NM_012971 [94, 95]), rKv1.6 (NM_023954 [96, 97]), hKv2.1 (NM_004975 [98, 99]), hKv3.1 (NM_004976 [100, 101]), rKv4.2 (NM_031739 [102, 103]), hKv10.1 (NM_172362 [104, 105]), hERG1 [Kv11.1, (NM_000238 [106, 107])], and Shaker IR [from Drosophila melanogaster, (NM_167595 [108, 109])], Nav channels [rNav1.2 (NM_012647 [42, 110]), rNav1.4 (NM_013178 [111, 112]), hNav1.5 (NM_198056 [113, 114]), mNav1.6 (NM_001077499 [115, 116]), BgNav [from Blattella germanica, (DQ466887 [117, 118])] and the auxiliary subunits rβ1 (NM_001271045 [119, 120]), hβ1 (NM_001037 [121, 122]), and TipE [from D. melanogaster, (NM_079196 [109, 123])], and Cav channels hCav3.1 [124, 125], hCav3.2 [126, 127], and hCav3.3 [128, 129] in Xenopus oocytes, the linearized plasmids were transcribed using the T7 or SP6 mMESSAGEmMACHINE transcription kit (Ambion, Austin, TX, USA). […]
Whole-cell currents of oocytes were recorded 1 to 3 days after injection. […] The current–voltage (IV) relationships were determined by 100-ms step depolarizations between − 90 and + 40 mV, using 5 mV increments. […]

BgNav = experiment: TEVC inhibition, BgNav; assay type: cell-based, Blattella germanica; parameters: Inhibition data, BgNav: unit not given here; conditions: 1 µM
From the text: as §1, §2, §3

hKv3.1 = experiment: TEVC inhibition, Kv3.1; assay type: cell-based, human; parameters: unit not given here; conditions: 1 µM
From the text: as §1, §2, §3

Shaker IR = experiment: TEVC inhibition, Shaker IR; assay type: cell-based, Drosophila melanogaster; parameters: unit not given here; conditions: 1 µM
From the text: as §1, §2, §3

hKv10.1 = experiment: TEVC inhibition, Kv10.1; assay type: cell-based, human; parameters: unit not given here; conditions: 1 µM
From the text: as §1, §2, §3

mNav1.6 = experiment: TEVC current-voltage relationship (Vhalf), Nav1.6; assay type: cell-based, mouse; parameters: Vhalf, toxin inactivation, Nav1.6 / Vhalf, toxin activation, Nav1.6: unit not given here; conditions: for Vhalf activation shift, Nav1.6: 1 µM versus control (ND96); for Vhalf, toxin activation, Nav1.6 / Vhalf, toxin inactivation, Nav1.6: 1 µM
From the text: as §1, §2, §3

hCav3.2 = experiment: TEVC inhibition, Cav3.2; assay type: cell-based, human; parameters: unit not given here; conditions: 1 µM
From the text: as §1, §2, §3

| Sequence | Vhalf, toxin activation, Nav1.5 (hNav1.5 [1]; replicate 1) | Vhalf, toxin inactivation, Nav1.5 (hNav1.5 [1]; replicate 1) | Vhalf, toxin activation, Nav1.5 (hNav1.5 [1]; replicate 2) | Vhalf, toxin inactivation, Nav1.5 (hNav1.5 [1]; replicate 2) | Vhalf, toxin activation, Nav1.5 (hNav1.5 [1]; replicate 3) | Vhalf, toxin inactivation, Nav1.5 (hNav1.5 [1]; replicate 3) | inhibition of Nav1.5 (hNav1.5 [2]) | inhibition of BgNav (BgNav) | Inhibition data, BgNav (BgNav; replicate 1) | Inhibition data, BgNav (BgNav; replicate 2) | Inhibition data, BgNav (BgNav; replicate 3) | Inhibition data, BgNav (BgNav; replicate 4) | Inhibition data, Kv3.1 (hKv3.1; replicate 1) | Inhibition data, Kv3.1 (hKv3.1; replicate 2) | Inhibition data, Kv3.1 (hKv3.1; replicate 3) | Inhibition data, Kv3.1 (hKv3.1; replicate 4) | Inhibition data, Shaker (Shaker IR; replicate 1) | Inhibition data, Shaker (Shaker IR; replicate 2) | Inhibition data, Shaker (Shaker IR; replicate 3) | Inhibition data, Shaker (Shaker IR; replicate 4) | also measured |
| --- | --- | --- | --- | --- | --- | --- | --- | --- | --- | --- | --- | --- | --- | --- | --- | --- | --- | --- | --- | --- | --- |
| KRSCIRRFGRCDHRPNDCCYNSSCRCNLWGSNCRCQRMGLFQKWGK (disulfide 4-19, 11-24, 18-35, 26-33) [xib13] | -22.7699 | -59.4076 | -23.9735 | -59.2524 | -25.0967 | -59.4209 | 28.2 ± 3.4% | targeted | 51.7 | 40.6 | 30.9 | 44.2 | 0.0 | 0.0 | 0.0 | 0.0 | 0.0 | 0.0 | 0.0 | 0.0 | Vhalf activation shift, Nav1.5 (hNav1.5 [1]; 1 µM versus control (ND96)): 5.9*** mV; Inhibition data, Kv10.1 (hKv10.1; replicate 1): 0.0; Inhibition data, Kv10.1 (hKv10.1; replicate 2): 0.0; Inhibition data, Kv10.1 (hKv10.1; replicate 3): 0.0; Inhibition data, Kv10.1 (hKv10.1; replicate 4): 0.0; Vhalf activation shift, Nav1.6 (mNav1.6): 0.5 mV; Vhalf, toxin activation, Nav1.6 (mNav1.6; replicate 1): -22.599; Vhalf, toxin inactivation, Nav1.6 (mNav1.6; replicate 1): -56.1011; Vhalf, toxin activation, Nav1.6 (mNav1.6; replicate 2): -28.3204; Vhalf, toxin inactivation, Nav1.6 (mNav1.6; replicate 2): -61.4261; Vhalf, toxin activation, Nav1.6 (mNav1.6; replicate 3): -27.6893; Vhalf, toxin inactivation, Nav1.6 (mNav1.6; replicate 3): -56.3883; Vhalf, toxin activation, Nav1.6 (mNav1.6; replicate 4): -20.1785; Vhalf, toxin inactivation, Nav1.6 (mNav1.6; replicate 4): -49.5801; Inhibition data, Cav3.2 (hCav3.2; replicate 1): 0.0; Inhibition data, Cav3.2 (hCav3.2; replicate 2): 0.0; Inhibition data, Cav3.2 (hCav3.2; replicate 3): 0.0; Inhibition data, Cav3.2 (hCav3.2; replicate 4): 0.0 |
| RLFCIRHHKYCGHRPKRCCSGLFCRCNTFGTNCRCQSKGALGKLI (disulfide 4-19, 11-24, 18-35, 26-33) [xib1] | -27.2261 | -60.2865 | -20.8548 | -53.6522 | -24.2578 | -54.899 | 26.1 ± 1.8% | targeted | 10.1 | 7.7 | 7.6 | 7.6 | 0.0 | 0.0 | 0.0 | 0.0 | 0.0 | 0.0 | 0.0 | 0.0 | Vhalf inactivation shift, Nav1.5 (hNav1.5 [1]; 1 µM versus control (ND96)): 1.5 mV; Vhalf, toxin activation, Nav1.5 (hNav1.5 [1]; replicate 4): -22.0356; Vhalf, toxin inactivation, Nav1.5 (hNav1.5 [1]; replicate 4): -51.823; Inhibition data, Kv10.1 (hKv10.1; replicate 1): 0.0; Inhibition data, Kv10.1 (hKv10.1; replicate 2): 0.0; Inhibition data, Kv10.1 (hKv10.1; replicate 3): 0.0; Inhibition data, Kv10.1 (hKv10.1; replicate 4): 0.0; Vhalf activation shift, Nav1.6 (mNav1.6): 1.9 mV; Vhalf, toxin activation, Nav1.6 (mNav1.6; replicate 1): -19.6324; Vhalf, toxin inactivation, Nav1.6 (mNav1.6; replicate 1): -54.1984; Vhalf, toxin activation, Nav1.6 (mNav1.6; replicate 2): -25.3795; Vhalf, toxin inactivation, Nav1.6 (mNav1.6; replicate 2): -54.8159; Vhalf, toxin activation, Nav1.6 (mNav1.6; replicate 3): -25.7195; Vhalf, toxin inactivation, Nav1.6 (mNav1.6; replicate 3): -56.7966; Vhalf, toxin activation, Nav1.6 (mNav1.6; replicate 4): -23.7149; Vhalf, toxin inactivation, Nav1.6 (mNav1.6; replicate 4): -53.558; Inhibition data, Cav3.2 (hCav3.2; replicate 1): 0.0; Inhibition data, Cav3.2 (hCav3.2; replicate 2): 0.0; Inhibition data, Cav3.2 (hCav3.2; replicate 3): 0.0; Inhibition data, Cav3.2 (hCav3.2; replicate 4): 0.0 |
